From PubChem BioAssay (NCI)
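All cell lines were grown in 96-well plates and treated with compound for 48 hours. TGI: total growth inhibition.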

Experiments:
Assay in all cases: NCI tumour cell line growth inhibition, 48 h
MCF7 breast = system: MCF7 breast
UACC-62 melanoma = system: UACC-62 melanoma
TK-10 renal = system: TK-10 renal
786-0 renal = system: 786-0 renal
PC-3 prostate = system: PC-3 prostate
NCI/ADR-RES ovarian = system: NCI/ADR-RES ovarian
RXF 393 renal = system: RXF 393 renal
CAKI-1 renal = system: CAKI-1 renal
SF-295 CNS = system: SF-295 CNS
IGROV1 ovarian = system: IGROV1 ovarian
MOLT-4 leukemia = system: MOLT-4 leukemia
SW-620 colon = system: SW-620 colon
NCI-H23 lung = system: NCI-H23 lung
OVCAR-3 ovarian = system: OVCAR-3 ovarian
HCT-116 colon = system: HCT-116 colon
RPMI-8226 leukemia = system: RPMI-8226 leukemia
M14 melanoma = system: M14 melanoma
LOX IMVI melanoma = system: LOX IMVI melanoma
MDA-N = system: MDA-N
A498 renal = system: A498 renal
OVCAR-4 ovarian = system: OVCAR-4 ovarian
MALME-3M melanoma = system: MALME-3M melanoma
OVCAR-8 ovarian = system: OVCAR-8 ovarian
NCI-H460 lung = system: NCI-H460 lung
DU-145 prostate = system: DU-145 prostate
SNB-75 CNS = system: SNB-75 CNS
SK-MEL-5 melanoma = system: SK-MEL-5 melanoma
CCRF-CEM leukemia = system: CCRF-CEM leukemia
HL-60(TB) leukemia = system: HL-60(TB) leukemia
KM12 colon = system: KM12 colon
SF-539 CNS = system: SF-539 CNS
HCC-2998 colon = system: HCC-2998 colon
SK-OV-3 ovarian = system: SK-OV-3 ovarian
SR leukemia = system: SR leukemia
BT-549 breast = system: BT-549 breast
SK-MEL-2 melanoma = system: SK-MEL-2 melanoma
OVCAR-5 ovarian = system: OVCAR-5 ovarian
COLO 205 colon = system: COLO 205 colon
U251 CNS = system: U251 CNS
UACC-257 melanoma = system: UACC-257 melanoma
MDA-MB-231 breast = system: MDA-MB-231 breast
SN12C renal = system: SN12C renal
SNB-19 CNS = system: SNB-19 CNS
HCT-15 colon = system: HCT-15 colon
MDA-MB-435 = system: MDA-MB-435
A549 NSCLC = system: A549 NSCLC
HOP-92 NSCLC = system: HOP-92 NSCLC
SK-MEL-28 melanoma = system: SK-MEL-28 melanoma
NCI-H226 lung = system: NCI-H226 lung
K-562 leukemia = system: K-562 leukemia
NCI-H522 lung = system: NCI-H522 lung
UO-31 renal = system: UO-31 renal
ACHN renal = system: ACHN renal
EKVX NSCLC = system: EKVX NSCLC

c1ccc(C(NCC2CCO2)(c2ccccc2)c2ccccc2)cc1 (centres undefined)
TGI (MCF7 breast): 31.7 µM
TGI (UACC-62 melanoma): 32 µM
TGI (TK-10 renal): 28.4 µM
TGI (786-0 renal): 41.6 µM
TGI (PC-3 prostate): 31.6 µM
TGI (NCI/ADR-RES ovarian): 28.9 µM
TGI (RXF 393 renal): 35 µM
TGI (CAKI-1 renal): 55.2 µM
TGI (SF-295 CNS): 28.9 µM
TGI (IGROV1 ovarian): 32.7 µM
TGI (MOLT-4 leukemia): > 100 µM
TGI (SW-620 colon): 44.4 µM
TGI (NCI-H23 lung): 30.9 µM
TGI (OVCAR-3 ovarian): 34.5 µM
TGI (HCT-116 colon): 56 µM
TGI (RPMI-8226 leukemia): > 100 µM
TGI (M14 melanoma): 32.1 µM
TGI (LOX IMVI melanoma): 95.5 µM
TGI (MDA-N): 54.5 µM
TGI (A498 renal): 36.1 µM
TGI (OVCAR-4 ovarian): 30.2 µM
TGI (MALME-3M melanoma): 35.1 µM
TGI (OVCAR-8 ovarian): 26.6 µM
TGI (NCI-H460 lung): 33.9 µM
TGI (DU-145 prostate): 71.3 µM
TGI (SNB-75 CNS): 28.8 µM
TGI (SK-MEL-5 melanoma): 63.9 µM
TGI (CCRF-CEM leukemia): > 100 µM
TGI (HL-60(TB) leukemia): 48.8 µM
TGI (KM12 colon): 28.8 µM
TGI (SF-539 CNS): 33.6 µM
TGI (HCC-2998 colon): 30.6 µM
TGI (SK-OV-3 ovarian): 34.2 µM
TGI (SR leukemia): > 100 µM
TGI (BT-549 breast): 38.7 µM
TGI (SK-MEL-2 melanoma): 42.5 µM
TGI (OVCAR-5 ovarian): 30.5 µM
TGI (COLO 205 colon): > 100 µM
TGI (U251 CNS): 54 µM
TGI (UACC-257 melanoma): 39.5 µM
TGI (MDA-MB-231 breast): 70.1 µM
TGI (SN12C renal): 51.3 µM
TGI (SNB-19 CNS): 27.6 µM
TGI (HCT-15 colon): 33.7 µM
TGI (MDA-MB-435): 46 µM
TGI (A549 NSCLC): 30.6 µM
TGI (HOP-92 NSCLC): 32.8 µM
TGI (SK-MEL-28 melanoma): > 100 µM
TGI (NCI-H226 lung): 26.6 µM
TGI (K-562 leukemia): > 100 µM
TGI (NCI-H522 lung): 28.1 µM
TGI (UO-31 renal): 25.3 µM
TGI (ACHN renal): 29 µM
TGI (EKVX NSCLC): 30.8 µM
